Measured values from patent US10815274B2, “Immunogenic WT-1 peptides and methods of use thereof” (Memorial Sloan Kettering Cancer Center, priority 2012, dated 2020).
Where a SMILES comes first, the peptide text is derived from it.

What was measured:
PHA blasts = test: Cr51 release assay, cytotoxic CTL response vs PHA blasts from the same leukemic patient; format: cell-based, human; conditions: 50:1 E:T, PHA blasts from same patients as the leukemia
WT1+ leukemia = test: Cr51 release assay, cytotoxic CTL response vs WT1+ leukemia expressing restricting HLA allele; format: cell-based, human; conditions: 50:1 E:T
[1] = test system: WT1- allo APC with restricting HLA allele; test: Cr51 release assay, cytotoxic CTL response vs unloaded allogeneic APC sharing restricting HLA allele; format: cell-based, human; conditions: 50:1 E:T
WT1- leukemia = test: Cr51 release assay, cytotoxic CTL response vs WT1- leukemia; format: cell-based, human; conditions: 50:1 E:T
[2] = test system: WT1+ allo APC with restricting HLA allele loaded with WT1 peptide; test: Cr51 release assay, cytotoxic CTL response vs peptide loaded allogeneic APC sharing restricting HLA allele (HLA restriction); conditions: 50:1 E:T
[3] = test system: WT1 peptide loaded autologous APC; test: Cr51 release assay, cytotoxic CTL response vs peptide loaded autologous APC; format: cell-based, human; conditions: 50:1 E:T
WT1- autologous APC = test: Cr51 release assay, cytotoxic CTL response vs unmodified autologous APC; format: cell-based, human; conditions: 50:1 E:T

Row | Structure (SMILES) | Cytotoxic CTL response, % vs PHA blasts (PHA blasts; HLA allele A0201) [%] | Cytotoxic CTL response, % vs PHA blasts (PHA blasts; HLA allele B4001) [%] | Cytotoxic CTL response, % vs WT1+ Leukemia (WT1+ leukemia; HLA allele A0201) [%] | Cytotoxic CTL response, % vs WT1+ leukemia (WT1+ leukemia; HLA allele A0201) [%] | Cytotoxic CTL response, % vs WT1+ Leukemia (WT1+ leukemia; HLA allele B4001) [%] | Cytotoxic CTL response, % vs WT1+ leukemia (WT1+ leukemia; HLA allele B4001) [%] | Cytotoxic CTL response, % vs WT1- allo APC with restricting HLA allele ([1]; HLA allele A0201) [%] | Cytotoxic CTL response, % vs WT1- allo APC with restricting HLA allele ([1]; HLA allele B4001) [%] | Cytotoxic CTL response, % vs WT1- leukemia (WT1- leukemia; HLA allele A0201) [%] | Cytotoxic CTL response, % vs WT1- leukemia (WT1- leukemia; HLA allele B4001) [%] | Cytotoxic CTL response, % vs WT1+ allo APC with restricting HLA allele loaded with WT1 peptide ([2]; HLA allele A0201) [%] | Cytotoxic CTL response, % vs WT1+ allo APC with restricting HLA allele loaded with WT1 peptide ([2]; HLA allele B4001) [%] | Cytotoxic CTL response, % vs WT1 peptide loaded autologous APC ([3]; HLA allele A0201) [%] | Cytotoxic CTL response, % vs WT1 peptide loaded autologous APC ([3]; HLA allele B4001) [%] | Cytotoxic CTL response, % vs WT1- autologous APC (WT1- autologous APC; HLA allele A0201) [%] | Cytotoxic CTL response, % vs WT1- autologous APC (WT1- autologous APC; HLA allele B4001) [%] | further results
1 | C[C@@H](O)[C@H](N)C(=O)N[C@@H](Cc1c[nH]cn1)C(=O)N[C@@H](CO)C(=O)N1CCC[C@H]1C(=O)N[C@H](C(=O)N[C@@H](Cc1c[nH]cn1)C(=O)N1CCC[C@H]1C(=O)N1CCC[C@H]1C(=O)N[C@@H](CCCNC(=N)N)C(=O)O)[C@@H](C)O [SEQ ID NO: 146] (H-THSPTHPPR-OH; N-terminus and C-terminus assumed) | 3 | 5 | 38 | 38 | 65 | 65 | 1 | 0 | 0 | 3 | 21 | 31 | 50 | 45 | 2 | 0 | 
2 | CC(C)C[C@H](NC(=O)[C@H](C)NC(=O)[C@H](CS)NC(=O)CNC(=O)CN)C(=O)N1CCC[C@H]1C(=O)N[C@H](C(=O)N[C@@H](CO)C(=O)NCC(=O)N[C@@H](C)C(=O)O)C(C)C [SEQ ID NO: 153] (H-GGCALPVSGA-OH; N-terminus and C-terminus assumed) | 6 |  | 47 | 47 |  |  | 3 |  | 3 |  | 25 |  | 32 |  | 8 |  | 
3 | CC(C)C[C@H](NC(=O)[C@H](C)NC(=O)CN)C(=O)N[C@@H](CCCNC(=N)N)C(=O)N[C@@H](CC(N)=O)C(=O)N1CCC[C@H]1C(=O)N[C@H](C(=O)N[C@@H](C)C(=O)N[C@@H](CS)C(=O)O)[C@@H](C)O [SEQ ID NO: 143] (H-GALRNPTAC-OH; N-terminus and C-terminus assumed) |  |  |  |  |  |  |  |  |  |  |  |  |  |  |  |  | Cytotoxic CTL response, % vs PHA blasts (PHA blasts; HLA allele B0702): 1%; Cytotoxic CTL response, % vs WT1+ Leukemia (WT1+ leukemia; HLA allele B0702): 60%; Cytotoxic CTL response, % vs WT1+ leukemia (WT1+ leukemia; HLA allele B0702): 60%; Cytotoxic CTL response, % vs WT1- allo APC with restricting HLA allele ([1]; HLA allele B0702): 5%; Cytotoxic CTL response, % vs WT1- leukemia (WT1- leukemia; HLA allele B0702): 1%; Cytotoxic CTL response, % vs WT1+ allo APC with restricting HLA allele loaded with WT1 peptide ([2]; HLA allele B0702): 22%; Cytotoxic CTL response, % vs WT1 peptide loaded autologous APC ([3]; HLA allele B0702): 30%; Cytotoxic CTL response, % vs WT1- autologous APC (WT1- autologous APC; HLA allele B0702): 0%
4 | CC(C)C[C@H](NC(=O)[C@H](CO)NC(=O)[C@@H]1CCCN1C(=O)[C@@H]1CCCN1C(=O)[C@H](Cc1ccccc1)NC(=O)[C@H](Cc1c[nH]cn1)NC(=O)[C@@H]1CCCN1C(=O)[C@H](CC(C)C)NC(=O)[C@@H]1CCCN1)C(=O)O [SEQ ID NO: 144] (H-PLPHFPPSL-OH; N-terminus and C-terminus assumed) | 1 |  | 22 | 22 |  |  | 1 |  | 2 |  | 24 |  | 30 |  | 0 |  | 
5 | CC(C)C[C@H](NC(=O)[C@H](C)NC(=O)CNC(=O)[C@@H]1CCCN1C(=O)[C@H](Cc1c[nH]cn1)NC(=O)[C@@H]1CCCN1C(=O)[C@H](CCCNC(=N)N)NC(=O)[C@H](CCC(N)=O)NC(=O)[C@@H](N)CCCNC(=N)N)C(=O)O [SEQ ID NO: 142, RQRPHPGAL] (H-RQRPHPGAL-OH; N-terminus and C-terminus assumed) |  |  |  |  |  |  |  |  |  |  |  |  |  |  |  |  | Cytotoxic CTL response, % vs PHA blasts (PHA blasts; HLA allele B0702): 2%; Cytotoxic CTL response, % vs WT1+ Leukemia (WT1+ leukemia; HLA allele B0702): 67%; Cytotoxic CTL response, % vs WT1+ leukemia (WT1+ leukemia; HLA allele B0702): 67%; Cytotoxic CTL response, % vs WT1- allo APC with restricting HLA allele ([1]; HLA allele B0702): 1%; Cytotoxic CTL response, % vs WT1- leukemia (WT1- leukemia; HLA allele B0702): 1%; Cytotoxic CTL response, % vs WT1+ allo APC with restricting HLA allele loaded with WT1 peptide ([2]; HLA allele B0702): 53%; Cytotoxic CTL response, % vs WT1 peptide loaded autologous APC ([3]; HLA allele B0702): 27%; Cytotoxic CTL response, % vs WT1- autologous APC (WT1- autologous APC; HLA allele B0702): 0%
6 | CSCC[C@H](NC(=O)[C@@H](N)CC(N)=O)C(=O)N[C@@H](Cc1c[nH]cn1)C(=O)N[C@@H](CCC(N)=O)C(=O)N[C@@H](CCCNC(=N)N)C(=O)N[C@@H](CC(N)=O)C(=O)N[C@@H](Cc1c[nH]cn1)C(=O)N[C@H](C(=O)N[C@@H](CCCCN)C(=O)N[C@@H](CC(C)C)C(=O)O)[C@@H](C)O [SEQ ID NO: 183] (H-NMHQRNHTKL-OH; N-terminus and C-terminus assumed) |  | 1 |  | 0 | 72 | 72 | 4 | 1 | 0 | 3 | 32 | 26 | 40 | 31 | 2 | 0 | Cytotoxic CTL response, % vs WT1+ leukemia (WT1+ leukemia; HLA allele A2402): 0%; Cytotoxic CTL response, % vs WT1- allo APC with restricting HLA allele ([1]; HLA allele A2402): 13%; Cytotoxic CTL response, % vs WT1- leukemia (WT1- leukemia; HLA allele A2402): 0%; Cytotoxic CTL response, % vs WT1+ allo APC with restricting HLA allele loaded with WT1 peptide ([2]; HLA allele A2402): 27%; Cytotoxic CTL response, % vs WT1 peptide loaded autologous APC ([3]; HLA allele A2402): 47%; Cytotoxic CTL response, % vs WT1- autologous APC (WT1- autologous APC; HLA allele A2402): 19%
7 | CC(C)C[C@H](NC(=O)[C@H](CO)NC(=O)CNC(=O)[C@H](Cc1ccc(O)cc1)NC(=O)[C@H](C)NC(=O)[C@@H](N)CO)C(=O)NCC(=O)NCC(=O)N1CCC[C@H]1C(=O)O [SEQ ID NO: 157] (H-SAYGSLGGP-OH; N-terminus and C-terminus assumed) |  | 3 |  | 0 | 68 | 68 | 5 | 8 | 0 | 3 | 31 | 24 | 51 | 41 | 2 | 2 | 
